Like-named read-outs stand apart in the source and are kept apart here.
Experiments:
Clostridium pasteurianum = test: microbe, parasite or virus in culture; format: cell-based
Marburg strain = test: microbe, parasite or virus in culture; format: cell-based, Butyribacterium methylotrophicum
[1] = Clostridium pasteurianum, 1 h, read-out: % Inhibition of growth, Clostridium pasteurianum
[2] = [Butyribacterium] methylotrophicum, 192 h, read-out: % Inhibition of growth, Marburg strain

Row | Compound | sensitivity of the Marburg strain (B. methylotrophicum) to antibiotics and inhibitors, in words (Marburg strain) | inhibition at 100 µg/mL (Clostridium pasteurianum; [1]) [%] | inhibition at 100 µg/mL (Marburg strain; [2]) [%] | other results
1 | O=O [Oxygen] | effective inhibitor of growth | – | – | % Inhibition of growth, Clostridium pasteurianum (Clostridium pasteurianum): 100%; % Inhibition of growth, Marburg strain (Marburg strain): 100%
2 | [H]/N=C(/N)N[C@H]1[C@H](O)[C@@H](O)[C@H](O[C@@H]2O[C@@H](C)[C@](O)(C=O)[C@H]2O[C@@H]2O[C@@H](CO)[C@H](O)[C@@H](O)[C@@H]2NC)[C@@H](N/C(N)=N\[H])[C@@H]1O [Streptomycin] | – | 100 | 80 | –
3 | O=C(N[C@H](CO)[C@H](O)c1ccc([N+](=O)[O-])cc1)C(Cl)Cl [Chloramphenicol] | – | 100 | 100 | –
4 | CN(C)C1C(=O)C(C(N)=O)=C(O)C2(O)C(=O)C3=C(O)c4c(O)cccc4C(C)(O)C3CC12 (stereo not shown) [Tetracycline] | – | 100 | 100 | –
5 | CC1(C)S[C@@H]2[C@H](NC(=O)Cc3ccccc3)C(=O)N2[C@H]1C(=O)O [Penicillin] | – | 100 | 100 | –
6 | [Cl-].[Na+] [Sodium chloride] | noticeably more tolerant | – | – | % Inhibition of growth, Clostridium pasteurianum (Clostridium pasteurianum; 2%): 73%; % Inhibition of growth, Marburg strain (Marburg strain; 2%): 0%
7 | [N-]=[N+]=[N-] [Sodium azide] | noticeably more tolerant | – | – | inhibition at 50 µg/mL (Clostridium pasteurianum; [1]): 100%; inhibition at 250 µg/mL (Clostridium pasteurianum; [1]): 93%; inhibition at 50 µg/mL (Marburg strain; [2]): 0%; inhibition at 250 µg/mL (Marburg strain; [2]): 0%

Source: patent US4425432A (priority 1981, dated 1984)
